Assay: In vivo biodistribution of radioactive ^99mTc complexes in female SD rats
Parameters: species or system female Sprague-Dawley (SD) rats
Conditions: for Biodistribution: Large Intestine / Biodistribution: Small Intestine / Biodistribution: Stomach: unit % ID; for absolute myocardial uptake peak value: peak at 60 min post-injection
Protocol: Female SD rats (180-220 g, n=3) were fasted for 12 h before the experiment, and the purified radioactive 99mTc complexes 78-81 were prepared into physiological saline (containing 10% ethanol) solutions of about 250-350 μCi/mL. 200 μL of the above solution was injected into the tail vein of female SD rats, and the rats were killed by cervical dislocation at five time points, 15, 30, 60, 120 and 240 min after the tail vein injection. The blood, brain, heart, liver, spleen, lung, kidney, muscle, bone, large intestine, small intestine, stomach and tail were collected, weighed and counted, and the count distribution of each tissue and organ was calculated (unit: % ID/g, the unit of large intestine, small intestine and stomach is % ID), and the data are the mean±standard deviation of three mice in each phase. At the same time, 200 μL of the above solution was diluted to 20 mL, which was used as the % ID without deducting the tail count.

## COC(C)(C)C[N+]#[C][99Tc-5]([C]#[N+]CC(C)(C)OC)([C]#[N+]CC(C)(C)OC)([C]#[N+]CC(C)(C)OC)([C]#[N+]CC(C)(C)OC)[C]#[N+]CC(C)(C)OCCCCSCCCCC(=O)O [^99mTc complex 79]
15 min post-injection
  Biodistribution: Blood: 0.11 ± 0.02 ID %/g
  Biodistribution: Bone: 0.13 ± 0.02 ID %/g
  Biodistribution: Brain: 0.021 ± 0.005 ID %/g
  Biodistribution: Heart: 1.50 ± 0.27 ID %/g
  Biodistribution: Kidney: 4.87 ± 0.72 ID %/g
  Biodistribution: Liver: 1.28 ± 0.19 ID %/g
  Biodistribution: Lungs: 0.30 ± 0.06 ID %/g
  Biodistribution: Muscle: 0.24 ± 0.06 ID %/g
  Biodistribution: Spleen: 0.52 ± 0.10 ID %/g
  Heart-to-Blood ratio: 13.99 ± 3.55
  Heart-to-Liver ratio: 1.22 ± 0.33
  Heart-to-Lungs ratio: 5.16 ± 0.69
  absolute myocardial uptake value: 1.50±0.27 % ID/g
  Biodistribution: Large Intestine: 0.76 ± 0.20 % ID
  Biodistribution: Small Intestine: 14.70 ± 0.78 % ID
  Biodistribution: Stomach: 0.51 ± 0.05 % ID
30 min post-injection
  Biodistribution: Blood: 0.09 ± 0.01 ID %/g
  Biodistribution: Bone: 0.09 ± 0.01 ID %/g
  Biodistribution: Brain: 0.012 ± 0.005 ID %/g
  Biodistribution: Heart: 2.24 ± 0.31 ID %/g
  Biodistribution: Kidney: 3.37 ± 0.38 ID %/g
  Biodistribution: Liver: 1.38 ± 0.16 ID %/g
  Biodistribution: Lungs: 0.27 ± 0.03 ID %/g
  Biodistribution: Muscle: 0.81 ± 0.14 ID %/g
  Biodistribution: Spleen: 0.16 ± 0.01 ID %/g
  Heart-to-Blood ratio: 25.88±5.10
  Heart-to-Liver ratio: 1.63 ± 0.27
  absolute myocardial uptake value: 2.24±0.31 % ID/g
  Biodistribution: Large Intestine: 12.06 ± 3.78 % ID
  Biodistribution: Small Intestine: 25.98 ± 3.13 % ID
  Biodistribution: Stomach: 0.47 ± 0.15 % ID
60 min post-injection
  Biodistribution: Blood: 0.04 ± 0.01 ID %/g
  Biodistribution: Bone: 0.05 ± 0.01 ID %/g
  Biodistribution: Brain: 0.009 ± 0.001 ID %/g
  Biodistribution: Heart: 2.45 ± 0.35 ID %/g
  Biodistribution: Kidney: 1.65 ± 0.53 ID %/g
  Biodistribution: Liver: 0.66 ± 0.12 ID %/g
  Biodistribution: Lungs: 0.14 ± 0.02 ID %/g
  Biodistribution: Muscle: 0.47 ± 0.10 ID %/g
  Biodistribution: Spleen: 0.09 ± 0.02 ID %/g
  Heart-to-Blood ratio: 56.19±13.56
  Heart-to-Liver ratio: 3.82±1.21
  Heart-to-Lungs ratio: 17.12±3.09
  absolute myocardial uptake value: 2.45±0.35 % ID/g
  Biodistribution: Large Intestine: 16.70 ± 2.72 % ID
  Biodistribution: Small Intestine: 22.54 ± 5.67 % ID
  Biodistribution: Stomach: 0.19 ± 0.06 % ID
120 min post-injection
  Biodistribution: Blood: 0.012 ± 0.002 ID %/g
  Biodistribution: Bone: 0.04 ± 0.01 ID %/g
  Biodistribution: Brain: 0.009 ± 0.002 ID %/g
  Biodistribution: Heart: 1.54 ± 0.45 ID %/g
  Biodistribution: Kidney: 0.65 ± 0.14 ID %/g
  Biodistribution: Liver: 0.28 ± 0.01 ID %/g
  Biodistribution: Lungs: 0.11 ± 0.03 ID %/g
  Biodistribution: Muscle: 0.21 ± 0.05 ID %/g
  Biodistribution: Spleen: 0.05 ± 0.01 ID %/g
  Heart-to-Blood ratio: 118.25±44.79
  Heart-to-Liver ratio: 5.55±1.38
  Heart-to-Lungs ratio: 15.05±5.27
  absolute myocardial uptake value: 1.54 0.45 % ID/g
  Biodistribution: Large Intestine: 27.61 ± 2.20 % ID
  Biodistribution: Small Intestine: 5.24 ± 0.78 % ID
  Biodistribution: Stomach: 0.22 ± 0.03 % ID
240 min post-injection
  Biodistribution: Blood: 0.025 ± 0.003 ID %/g
  Biodistribution: Bone: 0.13 ± 0.03 ID %/g
  Biodistribution: Brain: 0.007 ± 0.002 ID %/g
  Biodistribution: Heart: 0.60 ± 0.04 ID %/g
  Biodistribution: Kidney: 0.22 ± 0.02 ID %/g
  Biodistribution: Liver: 0.24 ± 0.01 ID %/g
  Biodistribution: Lungs: 0.09 ± 0.01 ID %/g
  Biodistribution: Muscle: 0.27 ± 0.02 ID %/g
  Biodistribution: Spleen: 0.11 ± 0.01 ID %/g
  Heart-to-Blood ratio: 24.36±1.72
  Heart-to-Liver ratio: 2.45 ± 0.18
  Heart-to-Lungs ratio: 6.66±0.60
  absolute myocardial uptake value: 0.60±0.04 % ID/g
  Biodistribution: Large Intestine: 33.40 ± 4.10 % ID
  Biodistribution: Small Intestine: 4.53 ± 0.88 % ID
  Biodistribution: Stomach: 0.20 ± 0.02 % ID
  absolute myocardial uptake peak value: 2.45±0.35 % ID/g

## COC(C)(C)C[N+]#[C][99Tc-5]([C]#[N+]CC(C)(C)OC)([C]#[N+]CC(C)(C)OC)([C]#[N+]CC(C)(C)OC)([C]#[N+]CC(C)(C)OC)[C]#[N+]CC(C)(C)OCCCCCCSCCCCC(=O)O [^99mTc complex 81]
  myocardial absolute uptake peak value (assessment): close to the corresponding value of myocardial perfusion imaging agent ^99mTc-MIBI
  absolute myocardial uptake peak value: 3.98±0.25 % ID/g
15 min post-injection
  Biodistribution: Blood: 0.018 ± 0.001 ID %/g
  Biodistribution: Bone: 0.24 ± 0.05 ID %/g
  Biodistribution: Heart: 3.37 ± 0.15 ID %/g
  Biodistribution: Kidney: 9.30 ± 0.20 ID %/g
  Biodistribution: Liver: 1.79 ± 0.26 ID %/g
  Biodistribution: Lungs: 0.86 ± 0.17 ID %/g
  Biodistribution: Muscle: 0.72 ± 0.11 ID %/g
  Biodistribution: Spleen: 0.70 ± 0.06 ID %/g
  Heart-to-Blood ratio: 192.24 ± 13.25
  Heart-to-Liver ratio: 1.93 ± 0.26
  Heart-to-Lungs ratio: 4.44 ± 0.26
  absolute myocardial uptake value: 3.37±0.15 % ID/g
  Biodistribution: Large Intestine: 6.53 ± 0.73 % ID
  Biodistribution: Small Intestine: 12.23 ± 2.35 % ID
  Biodistribution: Stomach: 1.05 ± 0.04 % ID
30 min post-injection
  Biodistribution: Blood: 0.016 ± 0.002 ID %/g
  Biodistribution: Bone: 0.15 ± 0.01 ID %/g
  Biodistribution: Heart: 3.45 ± 0.19 ID %/g
  Biodistribution: Kidney: 5.21 ± 1.54 ID %/g
  Biodistribution: Liver: 1.11± 0.16 ID %/g
  Biodistribution: Lungs: 0.575 ± 0.002 ID %/g
  Biodistribution: Muscle: 0.37 ± 0.06 ID %/g
  Biodistribution: Spleen: 0.88 ± 0.13 ID %/g
  Heart-to-Blood ratio: 220.61±45.73
  Heart-to-Liver ratio: 3.30 ± 0.42
  Heart-to-Lungs ratio: 6.00 ± 0.31
  absolute myocardial uptake value: 3.45±0.19 % ID/g
  Biodistribution: Large Intestine: 14.01 ± 1.87 % ID
  Biodistribution: Small Intestine: 17.82 ± 0.19 % ID
  Biodistribution: Stomach: 0.65 ± 0.11 % ID
60 min post-injection
  Biodistribution: Blood: 0.009 ± 0.001 ID %/g
  Biodistribution: Bone: 0.14 ± 0.01 ID %/g
  Biodistribution: Heart: 3.98 ± 0.25 ID %/g
  Biodistribution: Kidney: 4.90 ± 0.17 ID %/g
  Biodistribution: Liver: 0.60 ± 0.12 ID %/g
  Biodistribution: Lungs: 0.28 ± 0.07 ID %/g
  Biodistribution: Muscle: 0.77 ± 0.13 ID %/g
  Biodistribution: Spleen: 0.34 ± 0.04 ID %/g
  Heart-to-Blood ratio: 449.52±67.26
  Heart-to-Lungs ratio: 14.35 ± 2.38
  absolute myocardial uptake value: 3.98±0.25 % ID/g
  Biodistribution: Large Intestine: 6.44 ± 0.70 % ID
  Biodistribution: Small Intestine: 15.98 ± 1.55 % ID
  Biodistribution: Stomach: 0.46 ± 0.11 % ID
120 min post-injection
  Biodistribution: Blood: 0.020 ± 0.004 ID %/g
  Biodistribution: Bone: 0.12 ± 0.01 ID %/g
  Biodistribution: Heart: 2.83 ± 0.25 ID %/g
  Biodistribution: Kidney: 4.03 ± 0.24 ID %/g
  Biodistribution: Liver: 0.36 ± 0.05 ID %/g
  Biodistribution: Lungs: 0.27 ± 0.03 ID %/g
  Biodistribution: Muscle: 0.60 ± 0.11 ID %/g
  Biodistribution: Spleen: 0.25 ± 0.04 ID %/g
  Heart-to-Blood ratio: 146.14±22.27
  Heart-to-Liver ratio: 7.91 ± 0.50
  Heart-to-Lungs ratio: 10.43 ± 0.62
  absolute myocardial uptake value: 2.83±0.25 % ID/g
  Biodistribution: Large Intestine: 19.30 ± 1.11 % ID
  Biodistribution: Small Intestine: 24.46 ± 3.26 % ID
  Biodistribution: Stomach: 0.92 ± 0.03 % ID
240 min post-injection
  Biodistribution: Blood: 0.016 ± 0.002 ID %/g
  Biodistribution: Bone: 0.036 ± 0.005 ID %/g
  Biodistribution: Heart: 2.29 ± 0.05 ID %/g
  Biodistribution: Kidney: 2.07 ± 0.17 ID %/g
  Biodistribution: Liver: 0.17 ± 0.03 ID %/g
  Biodistribution: Lungs: 0.15 ± 0.02 ID %/g
  Biodistribution: Muscle: 0.48 ± 0.06 ID %/g
  Biodistribution: Spleen: 0.12 ± 0.02 ID %/g
  Heart-to-Blood ratio: 143.42±25.82
  Heart-to-Liver ratio: 11.82 ± 1.15
  Heart-to-Lungs ratio: 15.97 ± 2.41
  absolute myocardial uptake value: 2.29±0.05 % ID/g
  Biodistribution: Large Intestine: 27.81 ± 4.20 % ID
  Biodistribution: Small Intestine: 13.00 ± 1.55 % ID
  Biodistribution: Stomach: 0.30 ± 0.08 % ID

From patent publication US20250114486A1, “MARKED FATTY ACID DERIVATIVE, PRECURSOR COMPOUND THEREOF, AND USE THEREOF IN CONTRAST AGENT” (BEIJING NORMAL UNIVERSITY, priority 2022, published 2025)
